Target: T1, human OX2R (Homo sapiens, UniProt O43614)
T1 construct: expressed in transfected cells; host or cells: CHO (Chinese hamster ovary) cells, grown under G418 selection
T1 sequence (O43614 1-444): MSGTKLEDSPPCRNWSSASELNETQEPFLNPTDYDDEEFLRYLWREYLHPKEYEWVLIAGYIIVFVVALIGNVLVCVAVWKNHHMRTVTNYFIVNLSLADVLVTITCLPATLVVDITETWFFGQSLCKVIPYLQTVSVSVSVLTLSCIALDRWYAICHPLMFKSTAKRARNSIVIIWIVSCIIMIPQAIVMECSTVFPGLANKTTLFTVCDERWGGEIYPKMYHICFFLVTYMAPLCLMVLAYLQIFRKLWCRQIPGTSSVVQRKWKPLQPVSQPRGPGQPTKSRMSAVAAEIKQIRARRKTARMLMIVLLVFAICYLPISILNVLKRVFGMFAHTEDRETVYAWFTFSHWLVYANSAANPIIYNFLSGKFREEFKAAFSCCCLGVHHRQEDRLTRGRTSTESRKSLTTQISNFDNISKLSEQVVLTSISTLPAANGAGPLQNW
Assay: IPOne (IP-1 accumulation) assay in CHO cells expressing human OX2R
Format: cell-based
Conditions: for EC50: read-out: OX2R Potency, EC50; for Emax, % of reference agonist: OX2R, percentage of sample raw value/mean max effect (reference compound at 1 uM with 100% activity)
Description: The utility of the compounds in accordance with the present invention as orexin receptor OX1R and/or OX2R agonists may be readily determined without undue experimentation by methodology well known in the art. Both the OX1R and/or OX2R G-coupled protein receptors (GPCRs) couple through the Gaq signaling pathway, which ultimately promotes calcium mobilization via inositol triphosphate (IP3) production. The half-life of IP-3 is relatively short, being rapidly metabolized to inositol monophosphate (IP-1), which can be readily detected using a commercially available assay kit (IP-One; Cisbio; cat #621PAPEC) coupled with a cell line expressing the target receptor(s) of interest. The utility of the compounds in accordance with the present invention as orexin receptor OX1R and/or OX2R agonists may be determined utilizing this assay.
In a typical experiment, the OX1 and OX2 receptor agonist activity is determined in accordance with the following general experimental method. Chinese hamster ovary (CHO) cells expressing human OX1R and/or the human OX2R were grown in Iscove's modified DMEM containing glutaMAX™, 1% G418, 100 U/mL penicillin, 100 μg/mL streptomycin and 10% heat-inactivated qualified fetal bovine serum (FBS). The OX2R cells were seeded at 10,000 cells/well/50 μL and the OX1R cells were seeded at 20,000 cells/well/50 μL into 384-well white tissue culture plates (Greiner; cat #781080). All cell/media reagents were from GIBCO-Invitrogen Corp. The seeded cell plate(s) were incubated at 37° C. with 5% CO2 and 85% humidity for 20-24 hours. On the day of the assay, assay-ready compound plates were prepared using an acoustic liquid handler (ECHO; Labcyte), which dispensed sufficient volume of test compound stock (10 mM in DMSO) or 100% DMSO to prepare 10 point, ½-log dilutions in a final volume of 202.5 nL/well in all test wells of a 384-well diamond plate (Labcyte). Following completion of assay-ready plates, importantly, the next three steps were performed with minimal delay: 1) 20 μl of 1× stimulation buffer was added to the compound plate using a Multidrop Combi (small cassette, Thermo Fisher Scientific cat #24073290); 2) culture medium was removed from the cell plate using the Bluewasher plate washer (gentle spin; BlueCatBio); 3) 14 μl of compound/stimulation buffer mixture was added to the cell plate using a Bravo liquid handler (Agilent) prior to incubating cell plates at 37° C. with 5% CO2 and 85% humidity for 1 or 2 hours (OX1R and OX2R, respectively). During this incubation, IP-one detection reagents were prepared (38:1:1 lysis buffer:D2:AB-cryptate reagents). Six μL of mixed detection reagents were added to the cell plate using a Multidrop Combi (small cassette, Thermo Fisher Scientific cat #24073290) and incubated 60 minutes at room temperature in the dark. Fluorescence signal was detected using an Envision plate reader (Perkin Elmer) [LANCE/DELFIA Dual Enh (Em: APC 665; Ex: Cy5 620)].
For each compound, data were fit to a four parameter logistic fit (ActivityBase software) and the EC50 was reported as the inflection point of the resulting curve. Percent effect for each test compound was determined as the percentage of sample raw value/mean max effect, where the mean max effect was derived from the mean raw value of 32 control wells per assay plate (using Orexin A (cat #003-30) at 1 μM for human OX1R and a reference compound at 1 uM with 100% activity previously established by comparison to Orexin A for human OX2R). The intrinsic orexin receptor agonist activity of a compound which may be used in the present invention may be determined by these assays.

[1] = CHO cells expressing human OX2R, IP-One assay, 2 hours incubation, four parameter logistic fit

CCS(=O)(=O)N[C@H]1CCN(C(=O)OC)[C@H]1CO[C@H]1CC[C@@H](c2ccccc2)CC1 (relative stereo) [Example 13, methyl (CIS)-3-(ethylsulfonamido)-2-((((CIS)-4-phenylcyclohexyl)oxy)methyl)pyrrolidine-1-carboxylate]
EC50 [1]: 136 nM
Emax, % of reference agonist: 99.9%

COC(=O)N1CC[C@@H](NS(=O)(=O)C(C)C)[C@H]1CO[C@H]1CC[C@@H](c2ccccc2)CC1 (relative stereo) [Example 14, methyl (CIS)-3-((1-methylethyl)sulfonamido)-2-((((CIS)-4-phenylcyclohexyl)oxy)methyl) pyrrolidine-1-carboxylate]
EC50 [1]: 372 nM
Emax, % of reference agonist: 101.3%

COC(=O)N1CC[C@@H](NS(=O)(=O)C2CC2)[C@H]1CO[C@H]1CC[C@@H](c2ccccc2)CC1 (relative stereo) [Example 15, methyl (CIS)-3-(cyclopropanesulfonamido)-2-((((CIS)-4-phenylcyclohexyl)oxy)methyl) pyrrolidine-1-carboxylate]
EC50 [1]: 299 nM
Emax, % of reference agonist: 99.8%

COC(=O)N1CC[C@@H](NS(=O)(=O)CF)[C@H]1CO[C@H]1CC[C@@H](c2ccccc2)CC1 (relative stereo) [Example 16, methyl (CIS)-3-((fluoromethyl)sulfonamido)-2-((((CIS)-4-phenylcyclohexyl)oxy)methyl) pyrrolidine-1-carboxylate]
EC50 [1]: 177 nM
Emax, % of reference agonist: 100.7%

COC(=O)N1CC[C@H](NS(=O)(=O)c2ccccc2)[C@@H]1CO[C@H]1CC[C@@H](c2ccccc2)CC1 (relative stereo) [Example 17, methyl (CIS)-2-((((CIS)-4-phenylcyclohexyl)oxy)methyl)-3-(phenylsulfonamido)pyrrolidine-1-carboxylate]
EC50 [1]: 3700 nM
Emax, % of reference agonist: 82.3%

CNS(=O)(=O)N[C@@H]1CCN(C(=O)OC)[C@@H]1CO[C@H]1CC[C@@H](c2ccccc2)CC1 (relative stereo) [Example 18, methyl (CIS)-3-((N-methylsulfamoyl)amino)-2-((((CIS)-4-phenylcyclohexyl)oxy)methyl) pyrrolidine-1-carboxylate]
EC50 [1]: 66.5 nM
Emax, % of reference agonist: 98.5%

COC(=O)N1CC[C@@H](NS(=O)(=O)N(C)C)[C@H]1CO[C@H]1CC[C@@H](c2ccccc2)CC1 (relative stereo) [Example 19, methyl (CIS)-3-((N,N-dimethylsulfamoyl)amino)-2-((((CIS)-4-phenylcyclohexyl)oxy)methyl) pyrrolidine-1-carboxylate]
EC50 [1]: 39.4 nM
Emax, % of reference agonist: 98.8%

CS(=O)(=O)N[C@H]1CCN(C(=O)CC(F)(F)F)[C@H]1CO[C@H]1CC[C@@H](c2ccccc2)CC1 (relative stereo) [Example 20, N-((CIS)-2-((((CIS)-4-phenylcyclohexyl)oxy)methyl)-1-(3,3,3-trifluoropropanoyl)pyrrolidin-3-yl)methanesulfonamide]
EC50 [1]: 1010 nM
Emax, % of reference agonist: 96.4%

CS(=O)(=O)N[C@H]1CCN(C(=O)NCC2CCC2)[C@H]1CO[C@H]1CC[C@@H](c2ccccc2)CC1 (relative stereo) [Example 21, (CIS)-N-(cyclobutylmethyl)-3-(methylsulfonamido)-2-((((CIS)-4-phenylcyclohexyl)oxy)-methyl)pyrrolidine-1-carboxamide]
EC50 [1]: 5.65 nM
Emax, % of reference agonist: 103.2%

CS(=O)(=O)N[C@H]1CCN(C(=O)NC2CC2)[C@H]1CO[C@H]1CC[C@@H](c2ccccc2)CC1 (relative stereo) [Example 22, (CIS)-N-cyclopropyl-3-(methylsulfonamido)-2-((((CIS)-4-phenylcyclohexyl)oxy)methyl)pyrrolidine-1-carboxamide]
EC50 [1]: 250 nM
Emax, % of reference agonist: 99.6%

CS(=O)(=O)N[C@H]1CCN(C(=O)OCC(F)F)[C@H]1CO[C@H]1CC[C@@H](c2ccccc2)CC1 (relative stereo) [Example 23, 2,2-difluoroethyl (CIS)-3-(methylsulfonamido)-2-((((CIS)-4-phenylcyclohexyl)oxy)methyl)-pyrrolidine-1-carboxylate]
EC50 [1]: 59.6 nM
Emax, % of reference agonist: 101.3%

CS(=O)(=O)N[C@H]1CCN(C(=O)OCC(F)(F)F)[C@H]1CO[C@H]1CC[C@@H](c2ccccc2)CC1 (relative stereo) [Example 24, 2,2,2-trifluoroethyl (CIS)-3-(methylsulfonamido)-2-((((CIS)-4-phenylcyclohexyl)oxy)methyl)pyrrolidine-1-carboxylate]
EC50 [1]: 493 nM
Emax, % of reference agonist: 100.2%

CS(=O)(=O)N[C@H]1CCN(C(=O)CO)[C@H]1CO[C@H]1CC[C@@H](c2ccccc2)CC1 (relative stereo) [Example 25, N-((CIS)-1-(2-hydroxyacetyl)-2-((((CIS)-4-phenylcyclohexyl)oxy)methyl)pyrrolidin-3-yl)methanesulfonamide]
EC50 [1]: 361 nM
Emax, % of reference agonist: 103.3%

CS(=O)(=O)N[C@H]1CCN(C(=O)C2CC2)C1COC1CCC(c2ccccc2)CC1 (single isomer, unassigned) [Example 26]
OX2R Potency, EC50 (nM) [1]: INACTIVE
Emax, % of reference agonist: 17.1%

CS(=O)(=O)N[C@H]1CCN(C(=O)C2CC2)C1COC1CCC(c2ccccc2)CC1 (single isomer, unassigned) [Example 27]
EC50 [1]: 48.7 nM
Emax, % of reference agonist: 100.2%

COC(=O)N1CCC(NS(C)(=O)=O)[C@@H]1COC1CCC(C(C)C)CC1 (stereo in doubt) [Example 29, methyl (2R,3R)-2-(((4-isopropylcyclohexyl)oxy)methyl)-3-(methylsulfonamido)pyrrolidine-1-carboxylate]
EC50 [1]: 358 nM
Emax, % of reference agonist: 99.0%

COC(=O)N1CC[C@H](NS(C)(=O)=O)[C@@H]1CO[C@H]1CC[C@@H](c2ccccc2)CC1 [Example 11, methyl (2R,3S)-3-(methylsulfonamido)-2-((((CIS)-4-phenylcyclohexyl)oxy)methyl) pyrrolidine-1-carboxylate]
EC50 [1]: 115 nM
Emax, % of reference agonist: 100.2%

CS(=O)(=O)N[C@H]1CCN(C(=O)OCC(F)F)[C@H]1CO[C@H]1CC[C@@H](c2ccccc2)CC1 [Example 12, 2,2-difluoroethyl (2R,3S)-3-(methylsulfonamido)-2-((((CIS)-4-phenylcyclohexyl)oxy)methyl) pyrrolidine-1-carboxylate]
EC50 [1]: 81 nM
Emax, % of reference agonist: 101.1%
